Test results reported in patent publication US20250270549A1, “MSI2 AS A THERAPEUTIC TARGET FOR THE TREATMENT OF MYOTONIC DYSTROPHY” (UNIVERSITAT DE VALÈNCIA, priority 2021, published 2025).

Experiments:
Format in all cases: cell-based, human
LC3 = LC3 immunostaining and LC3 puncta quantification; settings: DM1 myoblasts; 10 μM
Method: For LC3B immunodetection, cells were differentiated in MDM for 7 days (3×10^5 cells/well in 24-well plates). After 48 h of gapmer treatment, cells were fixed with 4% PFA in PBS for 15 min at room temperature. After fixation, cells were permeabilized with methanol 100% for 15 min at −20° C. and blocked with blocking buffer (PBS 1×, 0.5% BSA, 1% goat serum) for 1 h at room temperature. Cells were incubated overnight (O/N) with rabbit anti-LC3B (1:200, ab51520; Abcam, Cambridge, UK) diluted in blocking buffer. Then, samples were incubated with goat anti-rabbit IgG (H+L) Alexa Fluor Plus 594 (1:200; Invitrogen, Carlsbad, CA, USA) for 2 h. Between antibodies, cells were washed three times with PBS 1×. Finally, cells were washed three times with PBS and mounted in Vectashield (Vector Laboratories, London, UK) with […] DAPI.
Image analyses of LC3-stained myotubes were performed using the Ifdotmeter software following the authors' recommendations (see Rodríguez-Arribas, M., et al. (2016). IFDOTMETER: A New Software Application for Automated Immunofluorescence Analysis. J. Lab. Autom. 21, 246-259). Briefly, the quantification of the number of LC3 dots or LC3 puncta was performed with 15-20 images per condition. Total LC3 dots per image were normalized relative to the total area corresponding to all myotubes observed in each image. Myotube area was measured by using ImageJ software. Data were expressed as the number of LC3 dots/mm2.

[1] = test system: UPS system and muscle degradation genes; assay: qRT-PCR of genes involved in catabolic pathways leading to muscle degradation; settings: 10 μM; immortalized and primary DM1 myoblasts
Method: FIG. 13. MSI2 inhibition in DM1 myoblasts improves pathological phenotypes. (A) MSI2 quantification by western blot and representative blots in control (orange) and DM1 myoblasts treated with vehicle 0.8% DMSO (gray) or 10 μM Ro-08-2750 (red) during the last 48 h of 7-day differentiated myotubes; GAPDH expression was used as an endogenous control. (B) Quantification by qRT-PCR of MSI2 and its direct targets miR-7, P21, and TGFBR1 in the same conditions as those described in (A). (C) Quantification by qRT-PCR of the relative expression of genes involved in catabolic pathways leading to muscle degradation in DM1 treated with vehicle (gray dashed line) and control myoblasts (orange) or DM1 cells treated with compound (red). […] (G) Quantification of myogenic fusion index of the conditions represented in (D)-(F) at 7, 10, and 14 days of differentiation (n=10-15 images). (K) Quantification of the number of LC3 puncta per square micrometer. […] Quantification by western blot of (L) ATG4A and (M) ATG7. Representative blots used for quantification are shown on the side of the bar graphs. […]
FIG. 14. […] (A and B) Quantification by qRT-PCR of the indicated genes in control primary myoblasts (line CNT-10, orange dashed line) and two DM1 lines, DM1-14 and DM1-16, treated with vehicle (0.8% DMSO; gray) or 10 μM Ro-08-2750 (red) for 48 h in 7-day differentiation cultures. […]

miR-7 = miR-7 quantification by RT-qPCR in MD1 cells

Cc1cc2nc3c(=O)[nH]c(=O)nc-3n(C)c2cc1C=O [Ro 08-2750, 2,3,4,10-Tetrahydro-7,10-dimethyl-2,4-dioxobenzo[g]pteridine-8-carboxaldehyde]
autophagic markers (LC3 puncta, ATG4A, ATG7) (LC3): reverse autophagic markers to a non-DM1 state
expression of UPS system and muscle degradation genes [1]: significantly rescued
expression of miR-7 (miR-7; 10 μM, all cell lines (immortalized DM1 myoblasts, DM1-14, DM1-16)): rescued
miR-7 biogenesis (miR-7; DM1 TDMs, 3 μM): significantly de-repress
